Experimental data published in patent publication US20240034736A1, “HSD17B13 INHIBITORS AND USES THEREOF” (FL2022-001, Inc., priority 2020, published 2024).

Each compound was assayed against Recombinant human HSD17B13 enzyme (Homo sapiens (Human), UniProt Q7Z5P4) (assay: HSD17b13 NAD(P)H-Glo Biochemical Assay). Conditions: 50 uM estradiol, 1 mM NAD+; read-out: HSD17β13 IC50.
Outline: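 Recombinant human HSD17B13 was pre-incubated with inhibitor for 20 min at RT in 20 mM Tris pH 7.4 with 0.002% Tween-20 and 0.02% BSA. Reaction then ran with 50 uM estradiol and 1 mM NAD+ (final) for 3 h at 37° C. NADH formed was detected by NAD(P)H-Glo luminescence after 1 h at RT.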

Chain of Recombinant human HSD17B13 enzyme (Q7Z5P4 20-300): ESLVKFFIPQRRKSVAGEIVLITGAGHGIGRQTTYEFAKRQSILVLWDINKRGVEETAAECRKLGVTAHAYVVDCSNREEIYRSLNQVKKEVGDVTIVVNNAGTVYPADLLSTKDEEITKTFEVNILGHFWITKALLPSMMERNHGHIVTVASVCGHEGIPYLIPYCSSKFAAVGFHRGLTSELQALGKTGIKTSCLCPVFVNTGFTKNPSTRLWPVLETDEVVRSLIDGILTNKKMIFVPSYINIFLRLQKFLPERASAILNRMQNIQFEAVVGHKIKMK

First: CS(=O)(=O)N1CCN(c2cc3cnn(-c4ccc(Cl)c(O)c4F)c3cn2)CC1 [Compound 19.27, 6-Chloro-2-fluoro-3-(5-(4-(methylsulfonyl)piperazin-1-yl)-1H-pyrazolo[3,4-c]pyridine-1-yl)phenol]
Second: CS(=O)(=O)N1CCN(c2cc3cnn(-c4ccc(F)c(O)c4F)c3cn2)CC1 [Compound 19.07, 2,6-Difluoro-3-(5-(4-(methylsulfonyl)piperazin-1-yl)-1H-pyrazolo[3,4-c]pyridine-1-yl)phenol]
The IC50 of the first is higher: 1000 to 30000 nM for the first, 100 to 1000 nM for the second. The second is the more potent here.

`CS(=O)(=O)N1CCN(c2cc3cn(-c4cc(F)c(F)c(O)c4F)nc3cn2)CC1` [Compound 19.30, 2,3,6-Trifluoro-5-(5-(4-(methylsulfonyl)piperazin-1-yl)-2H-pyrazolo[3,4-c]pyridine-2-yl)phenol] and `CS(=O)(=O)N1CCN(c2cc3cnn(-c4cc(F)c(F)c(O)c4F)c3cn2)CC1` [Compound 19.29, 2,3,6-Trifluoro-5-(5-(4-(methylsulfonyl)piperazin-1-yl)-1H-pyrazolo[3,4-c]pyridine-1-yl)phenol] fall in the same range of IC50: 100 to 1000 nM for the first, 100 to 1000 nM for the second.

`COc1ccc(-c2ccc3c(cnn3-c3ccc(F)c(O)c3)c2)cc1` [Compound 5.22, 2-Fluoro-5-(5-(4-methoxyphenyl)-1H-indazol-1-yl)phenol] and `CN(C)S(=O)(=O)c1ccc(-c2ccc3c(cnn3-c3ccc(F)c(O)c3)c2)cc1` [Compound 5.25, 4-(1-(4-Fluoro-3-hydroxyphenyl)-1H-indazol-5-yl)-N,N-dimethylbenzenesulfonamide] fall in the same range of IC50: 100 to 1000 nM for the first, 100 to 1000 nM for the second.

First: CS(=O)(=O)N1CCN(c2cc3cnn(-c4cc(O)ccc4C#N)c3cn2)CC1 [Compound 19.41, 4-Hydroxy-2-(5-(4-(methylsulfonyl)piperazin-1-yl)-1H-pyrazolo[3,4-c]pyridine-1-yl)benzonitrile]
Second: CS(=O)(=O)N1CCN(c2cc3cnn(-c4cc(O)c(F)c(C(F)(F)F)c4)c3cn2)CC1 [Compound 21.41, 2-Fluoro-5-(5-(4-(methyl-sulfonyl)piperazin-1-yl)-1H-pyrazolo[3,4-c]pyridine-1-yl)-3-(trifluoromethyl)phenol]
The IC50 of the first is higher: 1000 to 30000 nM for the first, 100 to 1000 nM for the second.

Compared with `CS(=O)(=O)N1CCN(c2ccc3c(cnn3-c3cc(O)c(F)c(C(F)(F)F)c3)c2)C2(CC2)C1` [Compound 21.45, 2-Fluoro-5-(5-(7-(methyl-sulfonyl)-4,7-diazaspiro[2.5]-octan-4-yl)-1H-indazol-1-yl)-3-(trifluoromethyl)phenol], `CS(=O)(=O)N1CCC(CO)(c2ccc3c(cnn3-c3cc(O)c(F)c(F)c3)c2)CC1` [Compound 28.01] is higher in IC50: 100 to 1000 nM for the first, 1000 to 30000 nM for the second.

First: CS(=O)(=O)N1CCN(c2cc3cnn(-c4cc(O)c(F)c(F)c4)c3cc2C2CC2)CC1 [Compound 21.49, 5-(6-Cyclopropyl-5-(4-(meth-ylsulfonyl)piperazin-1-yl)-1H-indazol-1-yl)-2,3-difluoro-phenol]
Second: CS(=O)(=O)N1CCN(c2cc(Cl)c3c(cnn3-c3cc(O)c(F)c(F)c3)c2)CC1 [Compound 21.16, 5-(7-Chloro-5-(4-(methyl-sulfonyl)piperazin-1-yl)-1H-indazol-1-yl)-2,3-difluoro-phenol]
The IC50 of the first is lower: 100 to 1000 nM for the first, 1000 to 30000 nM for the second.

First: Oc1ccc(F)c(-n2ncc3cc(-c4ccc(O)c(Cl)c4)ccc32)c1 [Compound 1, 2-Chloro-4-(1-(2-fluoro-5-hydroxyphenyl)-1H-indazol-5-yl)phenol]
Second: Oc1cc(-n2ncc3cc(-c4ccc(O)c(Cl)c4)ccc32)c(F)cc1F [Compound 8.02, 5-(5-(3-Chloro-4-hydroxyphenyl)-1H-indazol-1-yl)-2,4-difluorophenol]
The IC50 of the first is higher: 1000 to 30000 nM for the first, 100 to 1000 nM for the second.

First: CS(=O)(=O)N1CCN(c2ccc3c(cnn3-c3cc(O)c(F)c(F)c3)n2)CC1 [Compound 21.18, 2,3-Difluoro-5-(5-(4-(methyl-sulfonyl)piperazin-1-yl)-1H-pyrazolo[4,3-b]pyridine-1-yl)-phenol]
Second: CS(=O)(=O)N1CCN(c2cc3cnn(-c4ccc(Cl)c(O)c4F)c3cc2F)CC1 [Compound 19.03, 6-Chloro-2-fluoro-3-(6-fluoro-5-(4-(methylsulfonyl)piperazin-1-yl)-1H-indazol-1-yl)phenol]
The IC50 of the first is higher: 1000 to 30000 nM for the first, 100 to 1000 nM for the second.

`Cc1ccccc1-c1ccc2c(cnn2-c2ccc(F)c(O)c2)c1` [Compound 4.12, 2-Fluoro-5-(5-(o-tolyl)-1H-indazol-1-yl)phenol] and `Cc1cc(O)ccc1-c1ccc2c(cnn2-c2ccc(F)c(O)c2)c1` [Compound 5.19, 2-Fluoro-5-(5-(4-hydroxy-2-methylphenyl)-1H-indazol-1-yl)phenol] fall in the same range of IC50: 100 to 1000 nM for the first, 100 to 1000 nM for the second.

`CC1(C)CCN(c2cc3cnn(-c4cc(O)c(F)c(C(F)(F)F)c4)c3cn2)CC1` [Compound 21.43, 5-(5-(4,4-Dimethylpiperidin-1-yl)-1H-pyrazolo[3,4-c]-pyridine-1-yl)-2-fluoro-3-(trifluoromethyl)phenol] and `C[C@H]1COCCN1c1cc2cnn(-c3cc(O)c(F)c(C(F)(F)F)c3)c2cn1` [Compound 21.56, (S)-2-Fluoro-5-(5-(3-methyl-morpholino)-1H-pyrazolo[3,4-c]pyridin-1-yl)-3-(trifluoro-methyl)phenol] fall in the same range of IC50: 100 to 1000 nM for the first, 100 to 1000 nM for the second.

`Cc1nn(-c2cc(C(F)(F)F)c(F)c(O)c2F)c2cnc(N3CCN(S(=O)(=O)c4ccccc4)CC34CC4)cc12` [Compound 19.83, 2,6-Difluoro-3-(3-methyl-5-(7-(phenylsulfonyl)-4,7-diazaspiro[2.5]octan-4-yl)-1H-pyrazolo[3,4-c]pyridin-1-yl)-5-(trifluoromethyl)phenol] and `Cc1nn(-c2cc(C(F)(F)F)c(F)c(O)c2F)c2cnc(N3CCN(S(C)(=O)=O)CC34CC4)cc12` [Compound 19.53, 2,6-Difluoro-3-(3-methyl-5-(7-(methylsulfonyl)-4,7-diazaspiro[2.5]octan-4-yl)-1H-pyrazolo[3,4-c]pyridine-1-yl)-5-(trifluoromethyl)phenol] cannot be ordered by IC50: less than 100 nM for the first, less than 100 nM for the second.

`CS(=O)(=O)N1CCN(c2cc3cn(-c4cc(O)c(Cl)c(F)c4)nc3cn2)CC1` [Compound 19.18, 2-Chloro-3-fluoro-5-(5-(4-(methylsulfonyl)piperazin-1-yl)-2H-pyrazolo[3,4-c]pyridine-2-yl)phenol] and `CC1CN(S(C)(=O)=O)CCN1c1cc2cn(-c3cc(O)c(F)c(C(F)(F)F)c3)nc2cn1` (stereo not shown) [Compound 19.34, 2-Fluoro-5-(5-(2-methyl-4-(methylsulfonyl)piperazin-1-yl)-2H-pyrazolo[3,4-c]pyridine-2-yl)-3-(trifluoromethyl)phenol] fall in the same range of IC50: 100 to 1000 nM for the first, 100 to 1000 nM for the second.

`CS(=O)(=O)N1CC(Oc2ccc3c(cnn3-c3cc(O)c(F)c(F)c3)c2)C1` [Compound 25, 2,3-Difluoro-5-(5-((1-(methylsulfonyl)azetidin-3-yl)oxy)-1H-indazol-1-yl)phenol] and `COC1CCN(c2ccc3c(cnn3-c3cc(O)c(F)c(F)c3)c2)CC1` [Compound 21.20, 2,3-Difluoro-5-(5-(4-methoxy-piperidin-1-yl)-1H-indazol-1-yl)phenol] fall in the same range of IC50: 100 to 1000 nM for the first, 100 to 1000 nM for the second.

`Oc1cc(-n2cc3cc(-c4ccc(O)c(Cl)c4)ccc3n2)ccc1F` [Compound 4.06, 2-Chloro-4-(2-(4-fluoro-3-hydroxyphenyl)-2H-indazol-5-yl)phenol] and `Oc1cc(-n2ccc3cc(-c4ccc(O)c(Cl)c4)ccc32)ccc1F` [Compound 1.06, 2-Chloro-4-(1-(4-fluoro-3-hydroxyphenyl)-1H-indol-5-yl)phenol] fall in the same range of IC50: 100 to 1000 nM for the first, 100 to 1000 nM for the second.

Compared with `O=S(=O)(c1ccccc1)N1CCN(c2ccc3c(cnn3-c3cc(O)c(F)c(F)c3)c2)CC1` [Compound 21.09, 2,3-Difluoro-5-(5-(4-(phenyl-sulfonyl)piperazin-1-yl)-1H-indazol-1-yl)phenol], `COC1CCN(c2ccc3c(cnn3-c3ccc(F)c(O)c3)c2)CC1` [Compound 21.02, 2-Fluoro-5-(5-(4-methoxy-piperidin-1-yl)-1H-indazol-1-yl)phenol] is higher in IC50: 100 to 1000 nM for the first, 1000 to 30000 nM for the second.

`Cc1nn(-c2cc(O)c(F)c(C(F)(F)F)c2)c2cnc(N3CCN(S(C)(=O)=O)CC3)cc12` [Compound 21.50, 2-Fluoro-5-(3-methyl-5-(4-(methylsulfonyl)piperazin-1-yl)-1H-pyrazolo[3,4-c]-pyridine-1-yl)-3-(trifluoro-methyl)phenol] and `Cc1nn(-c2cc(O)c(F)c(C(C)(F)F)c2)c2cnc(N3CCOCC34CC4)cc12` [Compound 19.98, 3-(1,1-Difluoroethyl)-2-fluoro-5-(3-methyl-5-(7-oxa-4-azaspiro[2.5]octan-4-yl)-1H-pyrazolo[3,4-c]pyridin-1-yl)phenol] fall in the same range of IC50: 100 to 1000 nM for the first, 100 to 1000 nM for the second.

`Cc1nn(-c2cc(C(F)(F)F)c(F)c(O)c2F)c2cc(F)c(N(C)C3CCOCC3)nc12` [Compound 19.66, 2,6-Difluoro-3-(6-fluoro-3-methyl-5-(methyl(tetrahydro-2H-pyran-4-yl)amino)-1H-pyrazolo[4,3-b]pyridin-1-yl)-5-(trifluoromethyl)phenol] and `Cc1nn(-c2cc(C(F)(F)F)c(F)c(O)c2F)c2ccc(N(C)C3CCOCC3)cc12` [Compound 19.69, 2,6-Difluoro-3-(3-methyl-5-(methyl(tetrahydro-2H-pyran-4-yl)amino)-1H-indazol-1-yl)-5-(trifluoromethyl)phenol] cannot be ordered by IC50: less than 100 nM for the first, less than 100 nM for the second.

Compared with `Oc1c(F)c(-n2cnc3cc(N4CCOCC45CC5)ncc32)cc(C(F)(F)F)c1F` [Compound 21.60, 3-(6-(7-Oxa-4-azaspiro[2.5]-octan-4-yl)-3H-imidazo[4,5-c]pyridin-3-yl)-2,6-difluoro-5-(trifluoromethyl)phenol], `Cc1nn(-c2cc(O)c(F)c(C(=O)N(C)C)c2)c2cnc(N3CCOCC34CC4)cc12` [Compound 19.99, 2-Fluoro-3-hydroxy-N,N-dimethyl-5-(3-methyl-5-(7-oxa-4-azaspiro[2.5]octan-4-yl)-1H-pyrazolo[3,4-c]pyridin-1-yl)benzamide] is lower in IC50: 1000 to 30000 nM for the first, 100 to 1000 nM for the second.

Same assay, conditions: read-out: HSD17β13 inhibition at 30 uM

With `CS(=O)(=O)N1CCN(c2ccc3c(c2)cc(C(=O)O)n3-c2ccc(F)c(O)c2)CC1` [Compound 21.61, 1-(4-Fluoro-3-hydroxyphenyl)-5-(4-(methylsulfonyl)piperazin-1-yl)-1H-indole-2-carboxylic acid] the inhibition at 30 µM was less than 20%.
